According to patent US10653139B2 (priority 2015, dated 2020):

How the values were obtained:
[1] = system: fungi growth on dried grains; test: Antifungal in vivo test on dried grains, vapour phase; conditions: dried grains on PDA, 25 weeks
From the text: 1.2 In vivo tests. The efficacy screening of the vapour of clove and pennyroyal essential oils (OE) and their main active components (MAC) eugenol, pulegone or their mixture was, carried out using a modified technique describe in Bluma, R., Landa, M. F., Etcheverry, M., 2009. Impact of volatile compounds generated by essential oils on Aspergillus section Flavi growth parameters and aflatoxin accumulation. J. Sci. Food Agric. 89 (9), 1473-1480. For the determination of volatile phase effect of essential oil on fungi growth different concentrations of essential oil were added to sterile filter papers (10 mm diameter, Whatman No. 1), namely, 0.5 μL/mL, 1.0 μL/mL, 2.5 μL/mL and 5.0 μL/mL and placed adherent to the inner surface of each Petri dishes lid (90 mm).
The grains were disinfected at surface as describe by Pitt & Hocking (Pitt, J. I., Hocking, A. D., 2009. Fungi and food spoilage. Springer, New York).
Ten dried grains were placed on Petri dishes with 20 mL of PDA medium with chloramphenicol (1%). These dishes were sealed immediately with parafilm and incubated at 28° C. Inhibition concentrations of volatile phase of essential oils were determined by periodic observation of fungi growth over 25 weeks. Control with no treated grains was also performed. For each concentration ten replicates were done.

Acanthoscelides obtectus = test: Insecticidal activity test, vapour phase, bean; assay type: in vivo; conditions: 7.5 μL/mL
Fusarium culmorum [2] = test: Antifungal in vitro assay, volatile (vapour) phase; assay type: cell-based; conditions: observed over 25 weeks
Experimental: (§1) Petri dishes were inoculated with a 5 mm diameter disk of fungi grown on PDA medium for 8 days at 28° C. This disk was placed on the agar surface and the dish sealed immediately with parafilm and incubated at 28° C. Inhibition concentrations of volatile phase of essential oils were determined by a periodic evaluation the fungi growth over 25 weeks. In the control, equal amounts of sterilized water was added to filter papers and placed onto the lid of Petri dishes. For each concentration, four replicate Petri dishes were used. The absence of growth was recorded during 25 weeks.

Penicillium islandicum [3] = test: Antifungal in vitro assay, volatile (vapour) phase; assay type: cell-based; conditions: observed over 25 weeks
Experimental: as §1

Aspergillus candidus [4] = test: Antifungal in vitro assay, volatile (vapour) phase; assay type: cell-based; conditions: observed over 25 weeks
Experimental: as §1

Aspergillus niger [5] = test: Antifungal in vitro assay, volatile (vapour) phase; assay type: cell-based; conditions: observed over 25 weeks
Experimental: as §1

Fusarium culmorum [6] = test: Antifungal in vitro assay, direct plating; assay type: cell-based; conditions: observed over 25 weeks
Experimental: (§2) The screening of S. aromaticum and M. pulegium essential oils and their major components, eugenol and pulegone, respectively, was carried out using a direct plating technique in order to evaluate their ability to inhibit the growth of Aspergillus candidus, A. niger, Penicillium islandicum and Fusarium culmorum.
(§3) In vitro assays. For the determination of direct plating effect of essential oil on the growth of the fungi on different concentrations 0.5, 1.0, 2.5 and 5.0 μL/mL of essential oil were put on the surface of a Petri dish with 20 mL of potato dextrose agar medium (PDA). These Petri dishes were inoculated with a 5 mm diameter disk of fungi grown on PDA medium for 8 days at 28° C. This disk was placed on the agar surface and the dish sealed immediately with parafilm to prevent loss of essential oil to the atmosphere and incubated at 28° C. Inhibition concentrations of essential oil were determined by periodic evaluation of fungi growth during 25 weeks. For each concentration, four replicate dishes were used.

Penicillium islandicum [7] = test: Antifungal in vitro assay, direct plating; assay type: cell-based; conditions: observed over 25 weeks
Experimental: as §2, §3

Aspergillus candidus [8] = test: Antifungal in vitro assay, direct plating; assay type: cell-based; conditions: observed over 25 weeks
Experimental: as §2, §3

Aspergillus niger [9] = test: Antifungal in vitro assay, direct plating; assay type: cell-based; conditions: observed over 25 weeks
Experimental: as §2, §3

[10] = system: plants produced from treated seeds; test: In vivo effects on plants from treated seeds (pots in greenhouse); parameters: species or system maize
Experimental: (§4) FIG. 2—Represents the effect of 3.5 months treatments on grain maize germination: (A) in vitro after 4 days and (B) in vivo 17 days after sowing (DAS).
In an embodiment, the assay was performed in pots in a greenhouse with environmental monitoring (temperature, humidity and PAR intensity) and controlled irrigation. For each treatment, 6 pots with 2 plants each were used. […] No relevant differences in phenotypic (germination, chlorophyll and height) and physiological parameters (photosynthesis, stomatal conductance and transpiration (FIG. 3) were found.

grain maize germination = test: In vitro germination assay of treated seeds; conditions: 3.5 months treatments, in vitro after 4 days (FIG. 2A)
Experimental: as §4
In an embodiment, for the in vitro germination assay were used 10 seeds and 5 ml of sterile water per petri dish and the incubation temperature was ±25° C.

Sitophilus zeamais = test: Insecticidal activity test, vapour phase, maize; assay type: in vivo; conditions: 18.8 μL/mL
Experimental: Maize grain with an average moisture content of 14±0.5% and ten unsexed adult insects aged from 1 to 4 days were used. The stock cultures of insects and the biological tests were carried out in a single incubator at 27° C. and 75±5% relative humidity.
Control with non-treated samples was also performed. Ten replicates per treatment and control were set up. All the replicates were kept in an incubator at 27° C. and 75%±5% relative humidity.
The progeny (F1) was evaluated monthly by common procedures after removing the parent adults. Insect mortality was assessed during five months (0.25, 1, 8, 134 and 149 days). The development index and the life cycle were also evaluated.

[11] = Container atmosphere composition (GC-PID); assay type: physicochemical; conditions: after 20 days of storage, one or two devices, 24 ml pulegone, 65 L container, maintained 4/5 months
Experimental: To study the evolution of the spatial and temporal pulegone concentration, two containers with 1 and 2 release devices were used, similar to those described in 4.1. In each container, 24 ml of pulegone were impregnated in cotton.
The spatial concentration profiles along time were outlined by collecting over time samples of 500 μL from the container atmosphere, through the 6 sampling ports (detailed presentation in FIG. 1) using a 500 μL gas-tight Hamilton syringe.
Nitrogen was used as carrier gas at a constant 2 mL flow rate.

C=CCc1ccc(O)c(OC)c1 [Eugenol, eugenol]
Time (weeks), period of storage without any fungal contamination, in vivo ([1]; 0.5 μL/mL): 2 weeks
Time (weeks), period of storage without any fungal contamination, in vivo ([1]; 2.5 μL/mL): 25 weeks
Time (weeks), period of storage without any fungal contamination, in vivo ([1]; 5.0 μL/mL): 25 weeks
Insect Mortality (%) (Acanthoscelides obtectus; 0.25 days): 0%
Insect Mortality (%) (Acanthoscelides obtectus; 1 day (control 29)): 70%
Insect Mortality (%) (Acanthoscelides obtectus; 8 days (control 100)): 100%
Insect Mortality (%) (Acanthoscelides obtectus; 134 days (control 100)): 100%
Insect Mortality (%) (Acanthoscelides obtectus; 149 days (control 100)): 100%
Time (weeks), period of storage without any fungal contamination (Fusarium culmorum [2]; 0.5 μL/mL): 25 weeks
Time (weeks), period of storage without any fungal contamination (Fusarium culmorum [2]; 1.0 μL/mL): 25 weeks
Time (weeks), period of storage without any fungal contamination (Fusarium culmorum [2]; 2.5 μL/mL): 25 weeks
Time (weeks), period of storage without any fungal contamination (Fusarium culmorum [2]; 5.0 μL/mL): 25 weeks
Time (weeks), period of storage without any fungal contamination (Penicillium islandicum [3]; 0.5 μL/mL): 25 weeks
Time (weeks), period of storage without any fungal contamination (Penicillium islandicum [3]; 1.0 μL/mL): 25 weeks
Time (weeks), period of storage without any fungal contamination (Penicillium islandicum [3]; 2.5 μL/mL): 25 weeks
Time (weeks), period of storage without any fungal contamination (Penicillium islandicum [3]; 5.0 μL/mL): 25 weeks
Time (weeks), period of storage without any fungal contamination (Aspergillus candidus [4]; 0.5 μL/mL): 21 weeks
Time (weeks), period of storage without any fungal contamination (Aspergillus candidus [4]; 1.0 μL/mL): 25 weeks
Time (weeks), period of storage without any fungal contamination (Aspergillus candidus [4]; 2.5 μL/mL): 25 weeks
Time (weeks), period of storage without any fungal contamination (Aspergillus candidus [4]; 5.0 μL/mL): 25 weeks
Time (weeks), period of storage without any fungal contamination (Aspergillus niger [5]; 0.5 μL/mL): 23 weeks
Time (weeks), period of storage without any fungal contamination (Aspergillus niger [5]; 1.0 μL/mL): 25 weeks
Time (weeks), period of storage without any fungal contamination (Aspergillus niger [5]; 2.5 μL/mL): 25 weeks
Time (weeks), period of storage without any fungal contamination (Aspergillus niger [5]; 5.0 μL/mL): 25 weeks
Time (weeks), period of storage without any fungal contamination (Fusarium culmorum [6]; 0.5 μL/mL): 25 weeks
Time (weeks), period of storage without any fungal contamination (Fusarium culmorum [6]; 1.0 μL/mL): 25 weeks
Time (weeks), period of storage without any fungal contamination (Fusarium culmorum [6]; 2.5 μL/mL): 25 weeks
Time (weeks), period of storage without any fungal contamination (Fusarium culmorum [6]; 5.0 μL/mL): 25 weeks
Time (weeks), period of storage without any fungal contamination (Penicillium islandicum [7]; 0.5 μL/mL): 25 weeks
Time (weeks), period of storage without any fungal contamination (Penicillium islandicum [7]; 1.0 μL/mL): 25 weeks
Time (weeks), period of storage without any fungal contamination (Penicillium islandicum [7]; 2.5 μL/mL): 25 weeks
Time (weeks), period of storage without any fungal contamination (Penicillium islandicum [7]; 5.0 μL/mL): 25 weeks
Time (weeks), period of storage without any fungal contamination (Aspergillus candidus [8]; 0.5 μL/mL): 25 weeks
Time (weeks), period of storage without any fungal contamination (Aspergillus candidus [8]; 1.0 μL/mL): 25 weeks
Time (weeks), period of storage without any fungal contamination (Aspergillus candidus [8]; 2.5 μL/mL): 25 weeks
Time (weeks), period of storage without any fungal contamination (Aspergillus candidus [8]; 5.0 μL/mL): 25 weeks
Time (weeks), period of storage without any fungal contamination (Aspergillus niger [9]; 0.5 μL/mL): 25 weeks
Time (weeks), period of storage without any fungal contamination (Aspergillus niger [9]; 1.0 μL/mL): 25 weeks
Time (weeks), period of storage without any fungal contamination (Aspergillus niger [9]; 2.5 μL/mL): 25 weeks
Time (weeks), period of storage without any fungal contamination (Aspergillus niger [9]; 5.0 μL/mL): 25 weeks

C=C(C)[C@H]1CC=C(C)CC1 [Limonene, reference compound]
Insect Mortality (%) (Acanthoscelides obtectus; 0.25 days): 0%
Insect Mortality (%) (Acanthoscelides obtectus; 1 day (control 29)): 100%
Insect Mortality (%) (Acanthoscelides obtectus; 8 days (control 100)): 100%
Insect Mortality (%) (Acanthoscelides obtectus; 134 days (control 100)): 100%
Insect Mortality (%) (Acanthoscelides obtectus; 149 days (control 100)): 100%
height of plants relatively to the control ([10]; plants from treated seeds (FIG. 4A)): small variation
decrease in total chlorophyll content related to the control ([10]; plants obtained from treated grains): 1.9%
germination, in vivo ([10]; pots in greenhouse, figure printed in brackets after 'really affected the germination'): 49.1%
seed germination capacity, in vitro (grain maize germination): significant decrease

CC(C)=C1CC[C@@H](C)CC1=O [Pulegone, pulegone]
Time (weeks), period of storage without any fungal contamination, in vivo ([1]; 0.5 μL/mL): 2 weeks
Time (weeks), period of storage without any fungal contamination, in vivo ([1]; 2.5 μL/mL): 20 weeks
Time (weeks), period of storage without any fungal contamination, in vivo ([1]; 5.0 μL/mL): 25 weeks
Insect Mortality (%) (Acanthoscelides obtectus; 0.25 days): 0%
Insect Mortality (%) (Acanthoscelides obtectus; 1 day (control 29)): 100%
Insect Mortality (%) (Acanthoscelides obtectus; 8 days (control 100)): 100%
Insect Mortality (%) (Acanthoscelides obtectus; 134 days (control 100)): 100%
Insect Mortality (%) (Acanthoscelides obtectus; 149 days (control 100)): 100%
Insect Mortality (%) (Sitophilus zeamais; 0.25 days): 46%
Insect Mortality (%) (Sitophilus zeamais; 1 day): 100%
Insect Mortality (%) (Sitophilus zeamais; 8 days): 100%
Insect Mortality (%) (Sitophilus zeamais; 134 days): 100%
Insect Mortality (%) (Sitophilus zeamais; 149 days): 100%
stabilized concentration level in the container atmosphere [11]: 10 % of the standard pulegone saturation value
